From patent publication US11926642B2, “Compounds and methods for the treatment of COVID-19” (priority 2020, dated 2024) come the findings set out here.

This test deals with MA15-CoV. More on the design: species or system mice. To be noted: mouse, in vivo; for decline in day 4 lung viral titers: sc.

“And” between values parts separate entries of the source, which are not always exact repeats. Equal entries are not always repeated. Where two headings read alike, the source gives them in different places. Bounds are passed on as bounds.

Consider `COc1cccc2[nH]c(C(=O)N[C@@H](CC(C)C)C(=O)N[C@@H](C[C@@H]3CCNC3=O)C(=O)CO)cc12` [parent compound, N-((1S)-1-{[((1S)-3-hydroxy-2-oxo-1-{[(3S)-2-oxopyrrolidin-3-yl]methyl}propyl)amino]carbonyl}-3-methylbutyl)-4-methoxy-1H-indole-2-carboxamide], for which the “reduction of lung viral titers on day 4 post-infection” value is “≈ 2.0 log 10 and ≈ 1.5 log 10 and ~1.0 log 10”; the “weight loss and histopathologic signs of disease” value is on record as “decreased”; the “weight loss caused by the virus” value is listed as “reduced”. Also, the “decline in day 4 lung viral titers” value (30 mg/kg) is “≈ 1.5 log 10”. For the same molecule, where the note is “100 mg/kg”, the “decline in day 4 lung viral titers” value is listed as “≈ 3 log 10”. The “decline in day 4 lung viral titers” value (300 mg/kg) is not below 3.5 log 10.
